From ChEMBL document CHEMBL5385872, “Design and syntheses of a bimolecular STING agonist based on the covalent STING antagonist” (Eur J Med Chem, 2023)
Calls of active or inactive are those of the source. The rule behind the calls is not given here.

How the values were obtained:
[1] = target: T1, Stimulator of interferon genes protein (Mus musculus) (UniProt Q3TBT3); assay: Induction of STING-dependent gene expression in mouse BMDC cells assessed as IFNbeta mRNA expression at 20 uM incubated for 8 hrs by qRT-PCR analysis; type: cell-based; settings: filed as agonist
T1 sequence (whole entry): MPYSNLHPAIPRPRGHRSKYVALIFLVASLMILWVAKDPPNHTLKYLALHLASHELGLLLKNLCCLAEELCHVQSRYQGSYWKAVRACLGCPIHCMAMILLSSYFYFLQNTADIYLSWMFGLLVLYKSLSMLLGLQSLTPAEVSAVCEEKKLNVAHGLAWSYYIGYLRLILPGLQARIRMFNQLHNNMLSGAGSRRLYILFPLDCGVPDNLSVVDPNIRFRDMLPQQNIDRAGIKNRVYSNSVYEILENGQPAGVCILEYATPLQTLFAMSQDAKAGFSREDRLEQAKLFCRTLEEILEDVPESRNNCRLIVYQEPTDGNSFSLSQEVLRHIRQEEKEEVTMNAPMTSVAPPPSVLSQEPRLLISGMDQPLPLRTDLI

[2] = target: Stimulator of interferon genes protein (Homo sapiens) (UniProt Q86WV6); assay: Induction of oligomerization of STING in HEK-293T cells stably expressing STING-Flag ( unknown origin) measured after 4 hrs by immunoprecipitation assay; type: cell-based; settings: filed as agonist
Stimulator of interferon genes protein (Homo sapiens), sequence (Q86WV6 whole entry): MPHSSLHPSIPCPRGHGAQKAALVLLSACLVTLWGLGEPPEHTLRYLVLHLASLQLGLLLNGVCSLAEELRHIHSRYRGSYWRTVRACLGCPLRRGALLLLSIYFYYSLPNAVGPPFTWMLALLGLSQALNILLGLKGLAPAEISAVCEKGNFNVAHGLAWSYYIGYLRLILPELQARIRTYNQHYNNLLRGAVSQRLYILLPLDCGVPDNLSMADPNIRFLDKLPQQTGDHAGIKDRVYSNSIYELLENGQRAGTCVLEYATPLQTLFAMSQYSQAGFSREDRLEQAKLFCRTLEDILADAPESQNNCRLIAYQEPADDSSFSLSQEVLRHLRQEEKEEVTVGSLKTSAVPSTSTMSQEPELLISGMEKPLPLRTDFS

[3] = target: Stimulator of interferon genes protein (Homo sapiens) (UniProt Q86WV6); assay: Induction of STING-dependent gene expression in human HT-1080 cells assessed as IFNbeta mRNA expression at 20 uM incubated for 8 hrs by qRT-PCR analysis; type: cell-based; settings: filed as agonist
[4] = target: Stimulator of interferon genes protein (Homo sapiens) (UniProt Q86WV6); assay: Induction of STING-dependent gene expression in human HT-1080 cells assessed as IFNalpha mRNA expression at 20 uM incubated for 8 hrs by qRT-PCR analysis; type: cell-based; settings: filed as agonist
[5] = target: T1, Stimulator of interferon genes protein (Mus musculus); assay: Agonist activity at STING in mouse BMDM cells assessed as change in TBK1 phosphorylation (initially increase and then decreased) at 20 uM measured after 5 hrs by Western blot analysis; type: cell-based; settings: filed as agonist
Mus musculus [6] = assay: Induction of immune-activation effect in wild type female BALB/c mouse assessed as increase in serum IFNbeta level at 15 to 30 mg/kg, ip measured after 24 to 48 hrs by ELISA relative to control; type: functional, organism-based; settings: dose 15-30 mg/kg, time 24-48 hrs
[7] = target: T1, Stimulator of interferon genes protein (Mus musculus); assay: Induction of STING dimerization in mouse BMDM cells assessed as dimerization (initially increase and then decreased) at 2.5 to 20 uM measured after 5 hrs by Western blot analysis; type: cell-based; settings: filed as agonist, dose 2.5-20 µM
[8] = target: T1, Stimulator of interferon genes protein (Mus musculus); assay: Induction of STING dimerization in mouse BMDC cells assessed as dimerization (initially increase and then decreased) at 2.5 to 20 uM measured after 5 hrs by Western blot analysis; type: cell-based; settings: filed as agonist, dose 2.5-20 µM
[9] = target: T1, Stimulator of interferon genes protein (Mus musculus); assay: Agonist activity at STING in mouse BMDC cells assessed as change in TBK1 phosphorylation (initially increase and then decreased) at 20 uM measured after 5 hrs by Western blot analysis; type: cell-based; settings: filed as agonist
[10] = target: T1, Stimulator of interferon genes protein (Mus musculus); assay: Induction of STING-dependent gene expression in mouse BMDC cells assessed as IFNalpha mRNA expression at 20 uM incubated for 8 hrs by qRT-PCR analysis; type: cell-based; settings: filed as agonist
Mus musculus [11] = assay: Induction of immune-activation effect in wild type female BALB/c mouse assessed as increase in serum TNFalpha level at 15 to 30 mg/kg, ip measured after 24 to 48 hrs by ELISA relative to control; type: functional, organism-based; settings: dose 15-30 mg/kg, time 24-48 hrs
HT-1080 [12] = assay: Induction of TBK1 phosphorylation in human HT1080 cells at 20 uM measured after 5 hrs by Western blot analysis; type: functional, cell-based
HT-1080 [13] = assay: Induction of TBK1 phosphorylation in STING - knockout human HT1080 cells at 20 uM measured after 5 hrs by Western blot analysis; type: functional, cell-based

Activity [1]	Activity [2]	Activity [3]	Activity [4]	Activity [5]	Activity [7]	Activity [8]	Activity [9]	Activity [10]	Structure (SMILES)	Activity (Mus musculus [6])	Activity (Mus musculus [11])	Activity (HT-1080 [12])	Activity (HT-1080 [13])
Active	Active	Active	Active	Active	Active	Active	Active	Active	O=C(NCCCCCCCNC(=O)c1ccc([N+](=O)[O-])o1)c1ccc([N+](=O)[O-])o1	Active	Active	–	–
–	–	–	–	–	–	–	–	–	O=C(NCCNCCNC(=O)c1ccc([N+](=O)[O-])s1)c1ccc([N+](=O)[O-])s1	–	–	Active	Active
